Nine compounds from ChEMBL document CHEMBL1131662, “Synthesis and structure-activity relationship of potent bicyclic lactam thrombin inhibitors” (Bioorg Med Chem Lett, 1999) can be followed below.

One experiment concerns the target T1, Prothrombin (Homo sapiens, UniProt P00734). Briefly: In vitro inhibitory activity against human thrombin.(Slow moving component on HPLC).
In turn, `C[C@]12CC[C@@H](CCCc3ccccc3)C(=O)N1[C@H](C(=O)NC(CCCN=C(N)N)C(=O)c1nccs1)CS2` (stereo not given in full) came in with a Ki of 6 nM.

A further experiment deals with T1, Prothrombin. Briefly: In vitro inhibitory activity against human thrombin.
Regarding `C[C@]12CC[C@@H](c3ccc4nc(C(F)(F)F)ccc4c3)C(=O)N1[C@H](C(=O)NC(CCCN=C(N)N)C(=O)c1nccs1)CS2` (stereo not given in full), the Ki was found to be 10 nM.

`C[C@]12CC[C@H](CCCc3ccccc3)C(=O)N1[C@H](C(=O)NC(CCCN=C(N)N)C(=O)c1nccs1)CS2` (stereo not given in full) had a Ki of 100 nM.

Consider `C[C@]12CC[C@@H](CCc3ccccc3)C(=O)N1[C@H](C(=O)NC(CCCN=C(N)N)C(=O)c1nc3ccccc3s1)CS2` (stereo not given in full), for which the Ki was 235 nM.

Compound `C[C@]12CC[C@@H](c3ccc4nc(C(F)(F)F)ccc4c3)C(=O)N1[C@H](C(=O)NC(CCCN=C(N)N)C(=O)c1nc3ccccc3s1)CS2` (stereo not given in full) yielded a Ki of 18 nM.

Turning to `C[C@]12CC[C@H](c3ccc4nc(C(F)(F)F)ccc4c3)C(=O)N1[C@H](C(=O)NC(CCCN=C(N)N)C(=O)c1nccs1)CS2` (stereo not given in full), the Ki came to 150 nM.

Consider `C[C@]12CC[C@H](CCc3ccccc3)C(=O)N1[C@H](C(=O)NC(CCCN=C(N)N)C(=O)c1nc3ccccc3s1)CS2` (stereo not given in full), for which the affinity corresponds to a Ki of 550 nM.

In turn, `C[C@]12CC[C@@H](Cc3ccccc3)C(=O)N1[C@H](C(=O)NC(CCCN=C(N)N)C(=O)c1nc3ccccc3s1)CS2` (stereo not given in full) had a Ki of 18 nM.

`NC(N)=NCCCC(NC(=O)[C@@H]1CS[C@H]2CC[C@H](Cc3ccccc3)C(=O)N21)C(=O)c1nc2ccccc2s1` (stereo not given in full) showed a Ki of 1110 nM.

The next experiment has as its target T1, Prothrombin. Briefly: In vitro inhibitory activity against human thrombin.( Fast moving component on HPLC).
With `C[C@]12CC[C@@H](CCCc3ccccc3)C(=O)N1[C@H](C(=O)NC(CCCN=C(N)N)C(=O)c1nccs1)CS2` (stereo not given in full), the affinity corresponds to a Ki of 2 nM.

By Ki is commonly meant a measure of affinity in units of concentration, obtained from inhibition or displacement. Low values mean higher affinity, high ones lower affinity.
